{
  "source": "paper PMC6430017",
  "about": "“Structural and chemical insights into the covalent-allosteric inhibition of the protein kinase Akt” (Chemical Science, 2019)",
  "key": {"[1]": {"molecular_target": "GRK6 (Homo sapiens, UniProt P43250)", "sequence (P43250 whole entry)": "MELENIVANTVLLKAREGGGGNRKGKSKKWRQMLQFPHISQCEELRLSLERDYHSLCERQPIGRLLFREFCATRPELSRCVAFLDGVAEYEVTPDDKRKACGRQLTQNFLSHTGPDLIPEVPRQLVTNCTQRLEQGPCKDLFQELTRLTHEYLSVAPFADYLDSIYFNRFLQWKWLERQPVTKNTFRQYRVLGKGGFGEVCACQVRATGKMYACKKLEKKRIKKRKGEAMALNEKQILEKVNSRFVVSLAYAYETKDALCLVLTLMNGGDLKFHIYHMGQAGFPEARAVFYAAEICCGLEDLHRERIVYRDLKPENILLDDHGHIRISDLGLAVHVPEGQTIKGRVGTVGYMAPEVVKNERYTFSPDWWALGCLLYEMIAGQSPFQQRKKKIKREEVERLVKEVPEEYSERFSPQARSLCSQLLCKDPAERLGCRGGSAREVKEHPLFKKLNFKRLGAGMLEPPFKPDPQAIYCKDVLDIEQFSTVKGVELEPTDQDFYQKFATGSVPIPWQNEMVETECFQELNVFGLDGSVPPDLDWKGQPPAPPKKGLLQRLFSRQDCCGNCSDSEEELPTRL", "test": "SelectScreen Z'LYTE kinase profiling", "type": "biochemical", "settings": "ATP at apparent KM", "procedure": "(§1) protein kinases at a compound concentration of 1 µM. Measurements were performed in duplicates\n(§2) and at the particular apparent ATP KM of each individual kinase employing the activity based Z’LYTE®\n(§3) kinase assay of the SelectScreen® Kinase Profiling Services (ThermoFisher Scientific).\n(§4) kinases at a compound concentration of 1 µM. Measurements were performed in duplicates and at\n(§5) the particular apparent ATP KM of each individual kinase employing the activity based Z’LYTE® kinase\n(§6) assay of the SelectScreen® Kinase Profiling Services (ThermoFisher Scientific)."}, "[2]": {"molecular_target": "T1, NEK1 (Homo sapiens, UniProt Q96PY6)", "T1 sequence (Q96PY6 1-1258)": "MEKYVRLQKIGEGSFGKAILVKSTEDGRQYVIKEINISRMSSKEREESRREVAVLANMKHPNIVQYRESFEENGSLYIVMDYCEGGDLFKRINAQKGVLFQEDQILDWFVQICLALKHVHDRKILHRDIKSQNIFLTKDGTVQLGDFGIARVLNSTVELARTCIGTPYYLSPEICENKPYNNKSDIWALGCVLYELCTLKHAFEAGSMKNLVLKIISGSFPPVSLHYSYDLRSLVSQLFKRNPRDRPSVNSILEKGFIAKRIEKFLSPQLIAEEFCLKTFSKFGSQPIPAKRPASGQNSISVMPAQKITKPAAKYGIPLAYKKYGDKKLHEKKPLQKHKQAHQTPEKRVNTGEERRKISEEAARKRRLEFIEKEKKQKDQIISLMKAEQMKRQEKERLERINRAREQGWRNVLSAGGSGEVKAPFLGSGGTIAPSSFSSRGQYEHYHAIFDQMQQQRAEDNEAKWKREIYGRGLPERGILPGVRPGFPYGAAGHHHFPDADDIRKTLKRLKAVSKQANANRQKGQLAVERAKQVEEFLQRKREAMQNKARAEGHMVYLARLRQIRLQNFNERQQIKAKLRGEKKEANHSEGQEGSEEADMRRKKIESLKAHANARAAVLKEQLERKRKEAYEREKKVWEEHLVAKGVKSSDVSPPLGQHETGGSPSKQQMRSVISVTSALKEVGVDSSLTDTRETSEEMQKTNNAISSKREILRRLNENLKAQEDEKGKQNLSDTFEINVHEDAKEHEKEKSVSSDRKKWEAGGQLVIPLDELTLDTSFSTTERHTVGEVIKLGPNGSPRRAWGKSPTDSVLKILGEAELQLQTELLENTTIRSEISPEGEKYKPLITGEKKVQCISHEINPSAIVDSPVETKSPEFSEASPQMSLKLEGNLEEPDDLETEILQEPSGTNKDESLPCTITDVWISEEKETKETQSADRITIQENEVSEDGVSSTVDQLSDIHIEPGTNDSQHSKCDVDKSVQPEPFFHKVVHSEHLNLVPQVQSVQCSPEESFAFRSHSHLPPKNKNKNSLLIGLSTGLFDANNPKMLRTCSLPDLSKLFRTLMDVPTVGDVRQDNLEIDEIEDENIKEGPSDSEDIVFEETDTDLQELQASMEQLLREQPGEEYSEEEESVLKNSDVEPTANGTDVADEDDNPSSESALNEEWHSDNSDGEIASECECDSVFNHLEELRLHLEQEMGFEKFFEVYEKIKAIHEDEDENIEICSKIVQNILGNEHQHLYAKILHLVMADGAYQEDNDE", "test": "SelectScreen Z'LYTE kinase profiling", "type": "biochemical", "settings": "ATP at apparent KM", "procedure": "as §1, §2, §3, §4, §5, §6"}, "[3]": {"molecular_target": "AKT1 (PKB alpha) (Homo sapiens, UniProt P31749)", "sequence (P31749 whole entry)": "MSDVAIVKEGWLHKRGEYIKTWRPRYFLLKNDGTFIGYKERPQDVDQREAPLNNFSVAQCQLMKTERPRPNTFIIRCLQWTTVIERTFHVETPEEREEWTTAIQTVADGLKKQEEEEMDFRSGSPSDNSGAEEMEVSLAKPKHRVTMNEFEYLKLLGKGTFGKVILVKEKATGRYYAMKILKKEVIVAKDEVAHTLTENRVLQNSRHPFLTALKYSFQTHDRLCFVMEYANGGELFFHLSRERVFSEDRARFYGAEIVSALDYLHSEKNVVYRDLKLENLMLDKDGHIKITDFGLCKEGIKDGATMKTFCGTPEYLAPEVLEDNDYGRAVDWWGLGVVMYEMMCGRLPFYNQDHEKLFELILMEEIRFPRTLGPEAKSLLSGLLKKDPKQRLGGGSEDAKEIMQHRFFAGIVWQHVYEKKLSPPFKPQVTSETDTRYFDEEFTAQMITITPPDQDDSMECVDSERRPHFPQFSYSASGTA", "test": "SelectScreen Z'LYTE kinase profiling", "type": "biochemical", "settings": "ATP at apparent KM", "procedure": "as §1, §2, §3, §4, §5, §6"}, "[4]": {"tested_on": "AN3CA", "test": "Cell viability assay (CellTiter-Glo)", "type": "cell-based", "settings": "Homo sapiens, AN3-CA, 120 h; AN3CA (endometrium), day 5; read-out: Cell viability assay EC50", "procedure": "Cell Culture and Viability Assay\n(§7) analysis, cells were plated on day 0 into white 384-well cell culture plates (Greiner Bio-One) using a\n(§8) Multidrop reagent dispenser (Thermo) at cell numbers that ensure linear and optimal luminescent\n(§9) signal intensity (AN3-CA: 800 cells/well; BT-474: 400 cells/well; Dan-G: 400 cells/well; HPAF-II: 400\n(§10) cells/well). Then the cells were incubated for 24 h in a humidified atmosphere at 37 °C/5 % CO2. The\n(§11) cells were treated with inhibitors in serial dilutions ranging from 30 µM down to 0.1 nM using an Echo\n(§12) 520 acoustic liquid handler (Labcyte Inc.). Cell viability was analysed on day 5 using the CellTiter-Glo\n(§13) assay (Promega) as per manufacturer’s instructions. Luminescence signal was recorded by an EnVision\n(§14) Multilabel 2104 Plate Reader (PerkinElmer) with 500 ms integration time. All data were normalized to\n(§15) the plate positive control (30 µM staurosporine) and negative control (DMSO). Finally, the data was\n(§16) processed with the Quattro Software Suite using a four parameter logistic model. As a quality control,\n(§17) the Z’-factor was calculated from 16 positive and negative control values. Only assay results showing\n(§18) a Z’-factor ≥ 0.5 were used for further analysis. All experimental points were measured in duplicates\n(§19) for each plate and were replicated in at least three times."}, "[5]": {"molecular_target": "AKT3 (PKB gamma) (Homo sapiens, UniProt Q9Y243)", "sequence (Q9Y243 whole entry)": "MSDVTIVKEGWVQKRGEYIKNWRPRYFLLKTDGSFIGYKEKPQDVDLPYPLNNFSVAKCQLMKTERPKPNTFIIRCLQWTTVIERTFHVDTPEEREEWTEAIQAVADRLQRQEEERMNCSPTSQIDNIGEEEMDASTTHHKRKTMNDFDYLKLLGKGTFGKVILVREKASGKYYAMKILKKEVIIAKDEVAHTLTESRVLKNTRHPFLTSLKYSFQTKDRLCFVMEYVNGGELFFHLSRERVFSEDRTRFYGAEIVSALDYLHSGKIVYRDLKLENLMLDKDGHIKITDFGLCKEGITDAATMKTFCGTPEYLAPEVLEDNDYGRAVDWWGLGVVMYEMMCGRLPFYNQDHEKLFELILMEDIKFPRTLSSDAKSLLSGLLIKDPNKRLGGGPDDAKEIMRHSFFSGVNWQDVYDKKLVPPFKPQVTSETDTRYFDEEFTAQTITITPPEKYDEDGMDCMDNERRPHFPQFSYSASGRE", "test": "SelectScreen Z'LYTE kinase profiling", "type": "biochemical", "settings": "ATP at apparent KM", "procedure": "as §1, §2, §3, §4, §5, §6"}, "[6]": {"settings": "human, 3 µM", "procedure": "For this purpose, we used a microsomal stability assay that is a good predictor for phase I metabolic stability.[50]\nPhase I metabolic stability assay\nMetabolic stability under oxidative conditions was determined by LCMS-based measuring of\ndegradation of compounds at 3 µM in human and murine liver microsomes over 60 minutes at 37 °C\nCalculating the compound half-life t1/2, the in vitro intrinsic clearance CLint is"}, "[7]": {"tested_on": "ZR-75-1", "test": "Cell viability assay (CellTiter-Glo)", "type": "cell-based", "procedure": "Cell Culture and Viability Assay\nas §7, §8, §9, §10, §11, §12, §13, §14, §15, §16, §17, §18, §19"}, "[8]": {"tested_on": "MCF-7", "test": "Cell viability assay (CellTiter-Glo)", "type": "cell-based", "settings": "Homo sapiens, MCF7, 120 h; MCF-7 (breast), day 5; read-out: Cell viability assay EC50", "procedure": "Cell Culture and Viability Assay\nas §7, §8, §9, §10, §11, §12, §13, §14, §15, §16, §17, §18, §19"}, "[9]": {"tested_on": "T47D", "test": "Cell viability assay (CellTiter-Glo)", "type": "cell-based", "settings": "Homo sapiens, 120 h; T47D (breast), day 5; read-out: Cell viability assay EC50", "procedure": "Cell Culture and Viability Assay\nas §7, §8, §9, §10, §11, §12, §13, §14, §15, §16, §17, §18, §19"}, "[10]": {"molecular_target": "T2, Akt1 (Homo sapiens, UniProt P31749)", "T2 construct": "Purified full-length wtAkt1 was incubated with a 2-fold molar excess", "T2 sequence (P31749 whole entry)": "as the sequence (P31749 whole entry) above", "test": "Intact protein mass spectrometry, covalent labeling", "type": "binding", "settings": "10 µM protein, 100 µM inhibitor, 1 h, denaturing conditions", "procedure": "In order to provide an orthogonal proof for covalent bond formation, we co-incubated the covalent-allosteric inhibitors with the protein Akt1 and analyzed the samples by mass spectrometry (Fig. 2).\nMass spectra were recorded using denaturing conditions.\nWe used Akt1 for MS experiments and incubated 10 µM of the protein with 100 µM of the inhibitor in\na buffer for 1 h. We analyzed the samples by mass spectrometry using a Thermo Fisher Scientific\nUltimate 3000 HPLC system connected with a Thermo Fisher Scientific Velos Pro (2D ion trap).\nA mass range of 700-2000 m/z was scanned\nand raw data were deconvoluted and analyzed with ProMass."}, "[11]": {"tested_on": "KU-19-19", "test": "Cell viability assay (CellTiter-Glo)", "type": "cell-based", "settings": "Homo sapiens, 120 h; KU-19-19 (bladder), day 5; read-out: Cell viability assay EC50", "procedure": "Cell Culture and Viability Assay\nas §7, §8, §9, §10, §11, §12, §13, §14, §15, §16, §17, §18, §19"}, "[12]": {"molecular_target": "T3, full-length Akt (Akt^wt) (Homo sapiens, UniProt P31749)", "T3 sequence (P31749 whole entry)": "as above", "test": "Kinetic characterization by time-dependent IC50 measurements", "type": "biochemical", "settings": "from time-dependent IC50", "procedure": "(§20) The biochemical inhibitory activity (IC50) was determined with the HTRF KinEASE assay from Cisbio as\n(§21) previously described.1 All reagents for HTRF experiments were purchased from Cisbio Bioassays,\n(§22) France. The measurements were analyzed using the Quattro Software Suite for IC50-determination.\n(§23) Time-dependent IC50-measurements were performed as described. Briefly, IC50 values were\n(§24) determined for twelve different incubation times and afterwards plotted versus accordingly. Data was\n(§25) analyzed according to literature procedure.2"}, "[13]": {"tested_on": "BT-474", "test": "Cell viability assay (CellTiter-Glo)", "type": "cell-based", "settings": "Homo sapiens, 120 h; BT-474 (breast), day 5; read-out: Cell viability assay EC50", "procedure": "Cell Culture and Viability Assay\nas §7, §8, §9, §10, §11, §12, §13, §14, §15, §16, §17, §18, §19"}, "[14]": {"molecular_target": "T3, full-length Akt (Akt^wt)", "test": "HTRF KinEASE activity-based assay, IC50 determination", "type": "biochemical", "procedure": "as §20, §21, §22, §23, §24, §25"}},
  "data": [
    {"smiles": "C=CC(=O)Nc1cccc(C(=O)NC2CCN(Cc3ccc(-c4nc5cc[nH]c(=O)c5cc4-c4ccccc4)cc3)CC2)c1", "note": "[30b]", "values": [
      {"measurement": "inhibition at 1 µM", "setting": "[1]", "result": 3, "unit": "%"},
      {"measurement": "inhibition at 1 µM", "setting": "[2]", "result": -2, "unit": "%"}
    ]},
    {"smiles": "C=CC(=O)Nc1cc(NC(=O)NC2CCN(Cc3ccc(-c4nc5cc[nH]c(=O)c5cc4-c4ccccc4)cc3)CC2)ccc1Cl", "note": "[compound 27]", "values": [
      {"measurement": "inhibition at 1 µM", "setting": "[2]", "result": -1, "unit": "%"}
    ]},
    {"smiles": "C=CC(=O)Nc1ccc2c(c1)n(C1CCN(Cc3ccc(-c4nc5cc[nH]c(=O)c5cc4-c4ccccc4)cc3)CC1)c(=O)n2C", "note": "[24b]", "values": [
      {"measurement": "inhibition at 1 µM", "setting": "[3]", "result": 98, "unit": "%"},
      {"measurement": "EC50", "setting": "[4]", "result": "230 ± 75", "unit": "nM"},
      {"measurement": "inhibition at 1 µM", "setting": "[5]", "result": 75, "unit": "%"},
      {"measurement": "fold lower stability in microsomes", "setting": "[6]", "result": 4, "unit": "fold"},
      {"measurement": "EC50", "setting": "[7]; Homo sapiens, 120 h, ZR-75-1 (breast), day 5, read-out: Cell viability assay EC50", "result": 2, "unit": "nM"},
      {"measurement": "fold higher inhibitory activity than borussertib", "setting": "[7]; ZR-75-1 EC50", "result": 2, "unit": "fold"},
      {"measurement": "EC50", "setting": "[8]", "result": "32 ± 8", "unit": "nM"},
      {"measurement": "EC50", "setting": "[9]", "result": "11 ± 2", "unit": "nM"},
      {"measurement": "labeling of Akt1 by mass spectrometry", "setting": "[10]", "result": "complete labeling"},
      {"measurement": "EC50", "setting": "[11]", "result": "7.16 ± 2.11", "unit": "µM"},
      {"measurement": "Ki", "setting": "[12]", "result": "10.7 ± 0.5", "unit": "nM"},
      {"measurement": "kinact", "setting": "[12]", "result": 0.00202, "unit": "s⁻¹"},
      {"measurement": "kinact/KI", "setting": "[12]", "result": "190000 ± 25000", "unit": "M⁻¹ s⁻¹"},
      {"measurement": "inhibition at 1 µM", "setting": "[1]", "result": 0, "unit": "%"},
      {"measurement": "inhibition at 1 µM", "setting": "[2]", "result": -7, "unit": "%"},
      {"measurement": "EC50", "setting": "[13]", "result": "109 ± 16", "unit": "nM"},
      {"measurement": "fold loss in inhibitory activity (IC50) compared to 1", "setting": "[14]", "result": 3, "unit": "fold"},
      {"measurement": "IC50", "setting": "[14]; HTRF KinEASE", "result": "3 ± 0.3", "unit": "nM"}
    ]}
  ]
}
